The source of these data is patent US7553837B2, “Phenylazole compounds production process and antioxidants” (Nippon Soda Co., Ltd., priority 2003, dated 2009).

Assay [1] relates to 66 kDa protein in the retina. In words: 66 kDa protein increase inhibitory action in retina of rats irradiated with UV-A. Type of assay: in vivo. Conditions: Wistar male rats, 10 mg/kg, p.o., UV-A irradiation, retina 48 hours after irradiation, N = 3. As for the experimental part:
An action for inhibition of an increase in 66 kDa protein in the retina of rats irradiated with ultraviolet light of the compounds of the present invention was evaluated. To Wistar male rats (7 to 9 weeks old), a solution or suspension prepared by dissolving or suspending each of test compounds in a 0.1N hydrochloric acid solution or a 1% poly oxy ethylene hydrogenated castor oil (NIKKOL HCO-60) solution was orally administered. After 30 minutes, right eye was irradiated with UV-A (12 mW/cm^2) using a UV spot light source for 30 minutes. Left eye was not irradiated (control). During irradiation with UV-A and 2 hours before and after irradiation, rats were bred under an atmosphere where room light is screened. 48 hours after irradiation, the retina was separated. In the same manner as in Example 21, a 5% homogenate solution was prepared. Regarding a change in retinal protein, SDS-polyacrylamide electrophoresis was carried out according to the process of Lammli (Nature, […], 680-685, 1970). […] Then, the specimen was decolored with ethanol:acetic acid:water (25:8:65) and the 66 kDa protein after migration was analyzed by a densitograph. The amount of the protein in the specimen was determined by a Lowry process.

In assay [2] the test system is abnormal behavior and fatality due to ferrous chloride. The experiment in a line: In vivo antioxidative activity: ferrous chloride administration into spinal subarachnoid cavity of mice. The following applies: score after 60 minutes. Details: species or system Slc:ICR male mice. As to the method:
An in vivo antioxidative activity of the compounds of the present invention was evaluated from an abnormal behavior due to administration of ferrous chloride into spinal subarachnoid cavity of mice as well as an inhibitory effect of a fatality rate according to the process described in J. Med. Chem., 1997, Vol. 40, p. 559-573. Using Slc:ICR male mice (one group: 3 to 7 mice, 5 weeks old) (available from Nippon SLC Co., Ltd.), 5 μl of a 50 mM ferrous chloride physiological saline solution was administered to the spinal canal through the space between the fifth lumbar vertebrae and the sixth lumbar vertebrae. 20 to 60 minutes after administration of ferrous chloride, symptoms were observed and a score after 60 minutes was determined from symptoms shown in Table 32. […] As is apparent from the results, the compounds of the present invention have an in vivo antioxidation action.

Assay [3] deals with lipid peroxidation in retina homogenate. The experiment in a line: Retina migration properties: ex vivo retinal lipid peroxidation production inhibition. Type of assay: in vivo. Conditions: SD male rats, retina taken after 30 minutes. As for the experimental part:
Retina migration properties of the compounds of the present invention were evaluated. To SD male rats (one group: 3 rats, 6 weeks old), a solution or suspension prepared by dissolving or suspending each of the test compounds in a 0.1N hydrochloric acid solution or a 1% poly oxy ethylene hydrogenated castor oil (NIKKOL HCO-60) solution was orally administered. After 30 minutes, both eyes were extracted and the retina was separated under ice cooling. A 5% homogenate solution of the retina was prepared in a 0.1M tris-hydrochloric acid buffer (pH 7.4) under ice cooling using a polytron homogenizer for a trace amount (NS-310E: manufactured by Nichion Irika Kiki Co., Ltd.) and, after autoxidation at 37° C. for one hour, the amount of lipid peroxidation produced was determined by a thiobarbituric acid process (MASUGI et al., vitamin 51, 21-29, 1977). A 30% inhibitory dose (ID30) was determined from the inhibition ratio at each dose. As is apparent from the results, the compounds of the present invention have an ex vivo retinal lipid peroxidation production inhibitory action and is also excellent in retina migration properties.

Assay [4] has as its target T1, 15-LO obtained from reticulocyte of rabbit (Oryctolagus cuniculus, UniProt P12530).
T1 construct: 15-LO obtained from reticulocyte of rabbit; from tissue; host or cells: rabbit reticulocytes
T1 sequence (P12530 1-663): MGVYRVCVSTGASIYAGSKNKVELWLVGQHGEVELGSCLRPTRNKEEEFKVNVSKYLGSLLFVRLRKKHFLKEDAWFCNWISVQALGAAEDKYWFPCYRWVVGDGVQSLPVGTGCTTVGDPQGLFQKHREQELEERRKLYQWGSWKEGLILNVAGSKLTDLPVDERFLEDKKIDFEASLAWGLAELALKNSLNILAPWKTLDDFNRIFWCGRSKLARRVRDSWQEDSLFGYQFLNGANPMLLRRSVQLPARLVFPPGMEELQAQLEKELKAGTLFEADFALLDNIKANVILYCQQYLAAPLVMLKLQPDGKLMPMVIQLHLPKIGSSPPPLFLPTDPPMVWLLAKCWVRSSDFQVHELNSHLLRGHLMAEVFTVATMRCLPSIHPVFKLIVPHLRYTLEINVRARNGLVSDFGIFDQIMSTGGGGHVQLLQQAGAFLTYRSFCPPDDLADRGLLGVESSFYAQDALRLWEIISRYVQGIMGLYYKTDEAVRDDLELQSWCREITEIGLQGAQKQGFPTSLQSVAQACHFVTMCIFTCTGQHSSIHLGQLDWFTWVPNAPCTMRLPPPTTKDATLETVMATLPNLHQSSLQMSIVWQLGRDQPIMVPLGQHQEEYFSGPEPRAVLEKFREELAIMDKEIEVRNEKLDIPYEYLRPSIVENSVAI
The experiment in a line: 15-lipoxygenase (15-LO) inhibitory activity, 15-HETE production. The class given is biochemical. The following applies: 15-LO from reticulocyte of rabbit, linoleic acid. As for the experimental part:
A 15-LO inhibitory activity was measured by a partially modified process of a process of Auerbach et al. (Auerbach B. J, et al., Anal. Biochem.: 201, 375-80, 1992). That is, 15-LO obtained from reticulocyte of rabbit and each of test compounds dissolved in DMSO (final concentration: 1%) were preincubated (4° C., 15 minutes) in phosphoric acid buffer (pH 7.4) and 256 μM linoleic acid was further added, followed by incubation (4° C., 10 minutes). The amount of 15-HETE produced as a result of incubation was determined by spectrophotometry (OD660nm) and 50% production inhibitory concentration (μM) against 15-LO of each test compound was calculated. Compounds (R-3) and (R-4) (edaravone) of the following formulas were used as a control drug.

The IC50 is the concentration that gives 50% inhibition.

For `Cc1c(C)c2c(c(C)c1N)CC(C)(CN1CCN(c3cccc(-n4ccnc4)c3)CC1)O2` (centres unmarked) [Compound B-1-18], in assay [1], the “66 kDa protein ratio in retina of rats irradiated with ultraviolet light (right eye: irradiated/left eye: non-irradiated)” value came to 1.50. The “In vivo antioxidation action 50% inhibitory concentration (ID50), Intraperitoneal administration” value in assay [2] (intraperitoneal administration 30 minutes before ferrous chloride into spinal canal) turned out to be 4.7 mg/kg. Moreover, the “In vivo antioxidation action 50% inhibitory concentration (ID50), Oral administration” value in assay [2] (oral administration 30 minutes before ferrous chloride into spinal canal) was found to be 7.4 mg/kg. For the same compound, the “Lipid peroxidation inhibition 30% inhibitory concentration (ID30, oral administration) in ex vivo retina” value in assay [3] was 12 mg/kg. In addition, the IC50 in assay [4] stood at 1.54 µM.
